Here are results for 30 compounds from patent publication US10703757B2, “Compounds and methods for CDK8 modulation and indications therefor” (Plexxikon Inc., priority 2016, dated 2020).

The assay concerns CDK8 (phosphorylation of STAT1 at serine 727 in A549 cells). The assay can be described thus: Cell based Phospho-STAT1 assay (IFNγ-stimulated A549 cells, AlphaLISA). The following applies: Homo sapiens, A549, A549 cells, phospho-STAT1 after IFNγ stimulation. The method, then: Determine Inhibitor Activity Against CDK8 in Cell Based Phospho-STAT1 Assay
This assay measures the phosphorylation of the CDK8 substrate STAT1 following Interferon-gamma (IFNγ) stimulation^1. The lung carcinoma cell line A549 is seeded in a 96 well plate in 50 μL of culture media at 5×10^4 cells/well and incubated at 37° C. overnight. Serial dilutions of compounds (in total volume of 50 μL culture media) are added to the cells and incubated at 37° C. for one hour. Human IFNγ (R&D Systems) is added to the cells at a 10 ng/mL final concentration. 4 wells containing DMSO treated cells stimulated with IFNγ serve as high controls and 4 wells containing DMSO treated unstimulated cells serve as low controls. After 30 minute IFNγ stimulation at 37° C., the culture media is removed and 50 μL of 1×AlphaLISA lysis buffer (PerkinElmer GA, USA) is added to each well. 5 μL cell lysate is transferred to a 384 well AlphaPlate (PerkinElmer GA, USA) and 5 μL containing 0.156 nM Phospho-STAT1 (Ser727) rabbit monoclonal antibody (Cell Signaling Technology), 0.156 nM Mouse Anti-STAT1 antibody (BD Transduction Laboratories), and 10 μg/mL Anti-rabbit IgG AlphaLISA acceptor beads (PerkinElmer GA, USA) diluted in 1× AlphaLISA immunoassay buffer (PerkinElmer GA, USA) is added to the cell lysates and incubated at room temperature for 90 minutes. 5 μL Anti-Mouse IgG Alpha donor beads diluted in 1× AlphaLISA immunoassay buffer (PerkinElmer GA, USA) is added to the reaction mixture and incubated at room temperature for 90 minutes. Upon excitation of these beads with laser light at 680 nm, singlet oxygen is produced. This singlet oxygen is rapidly quenched, unless the AlphaLISA Anti-Rabbit IgG acceptor beads are in close proximity, in which case a proximity signal can be measured at […]. In the presence of cellular CDK8 catalytic activity, there is a very strong proximity signal. Selective CDK8 inhibitors affect a decrease in this proximity signal through a decrease in phosphorylation of STAT1 at serine 727. The percentage inhibition at individual concentrations relative to high and low controls is calculated. The data are analyzed by using nonlinear regression to generate IC50 values.
For orientation: In Alpha technology, singlet oxygen from a donor bead excites a nearby acceptor bead.

For orientation: IC50 means the point on the concentration scale where inhibition reaches its midpoint. Higher therefore signals a need for much substance. Regarding `Cn1cc(-c2ccc(-c3cnc4cccc(NC5CCOCC5)n34)cc2)cn1` [Compound P-0388, 3-(4-(1-methyl-1H-pyrazol-4-yl)phenyl)-N-(tetrahydro-2H-pyran-4-yl)imidazo[1,2-a]pyridin-5-amine], the IC50 was 100 to 1000 nM. Next, `Cn1cc(-c2ccc(-c3cnc4cccc(NCc5ccccc5)n34)cc2)cn1` [Compound P-0389, N-benzyl-3-(4-(1-methyl-1H-pyrazol-4-yl)phenyl)imidazo[1,2-a]pyridin-5-amine]: 1000 to 10000 nM; `Cn1cc(-c2ccc(-c3cnc4cccc(NCCCO)n34)cc2)cn1` [Compound P-0390, 3-((3-(4-(1-methyl-1H-pyrazol-4-yl)phenyl)imidazo[1,2-a]pyridin-5-yl)amino)propan-1-ol]: 100 to 1000 nM; `Cn1cc(-c2ccc(-c3cnc4cccc(NCC5CCOCC5)n34)cc2)cn1` [Compound P-0391, 3-(4-(1-methyl-1H-pyrazol-4-yl)phenyl)-N-((tetrahydro-2H-pyran-4-yl)methyl)imidazo[1,2-a]pyridin-5-amine]: 100 to 1000 nM. Next, `Cn1cc(-c2ccc(-c3cnc4cccc(N5CCNCC5)n34)cc2)cn1` [Compound P-0393, 3-(4-(1-methyl-1H-pyrazol-4-yl)phenyl)-5-(piperazin-1-yl)imidazo[1,2-a]pyridine]: 1000 to 10000 nM; `CN1CCN(c2cccc3ncc(-c4ccc(-c5cnn(C)c5)cc4)n23)CC1` [Compound P-0394, 3-(4-(1-methyl-1H-pyrazol-4-yl)phenyl)-5-(4-methylpiperazin-1-yl)imidazo[1,2-a]pyridine]: 100 to 1000 nM. Next, `Cn1cc(-c2ccc(-c3cnc4cccc(N5CCOCC5)n34)cc2)cn1` [Compound P-0395, 4-(3-(4-(1-methyl-1H-pyrazol-4-yl)phenyl)imidazo[1,2-a]pyridin-5-yl)morpholine]: 1000 to 10000 nM; `Cn1cc(-c2ccc(-c3cnc4cccc(N5CCC(C)(O)CC5)n34)cc2)cn1` [Compound P-0396, 4-methyl-1-(3-(4-(1-methyl-1H-pyrazol-4-yl)phenyl)imidazo[1,2-a]pyridin-5-yl)piperidin-4-ol]: 100 to 1000 nM.

Compound `Cn1cc(-c2ccc(-c3cnc4cccc(N5CCC(O)CC5)n34)cc2)cn1` [Compound P-0397, 1-(3-(4-(1-methyl-1H-pyrazol-4-yl)phenyl)imidazo[1,2-a]pyridin-5-yl)piperidin-4-ol] returned an IC50 of 100 to 1000 nM. Take `COC(=O)C1(C)CCN(c2cccc3ncc(-c4ccc(-c5cnn(C)c5)cc4)n23)CC1` [Compound P-0399, methyl 4-methyl-1-(3-(4-(1-methyl-1H-pyrazol-4-yl)phenyl)imidazo[1,2-a]pyridin-5-yl)piperidine-4-carboxylate]: the IC50 was in the range of 1000 to 10000 nM. Next, `Cn1cc(-c2ccc(-c3cnc4cccc(N5CCC(C(N)=O)CC5)n34)cc2)cn1` [Compound P-0400, 1-(3-(4-(1-methyl-1H-pyrazol-4-yl)phenyl)imidazo[1,2-a]pyridin-5-yl)piperidine-4-carboxamide]: 100 to 1000 nM. `Cn1cc(-c2ccc(-c3cnc4cccc(N5CCC(C)(C#N)CC5)n34)cc2)cn1` [Compound P-0401, 4-methyl-1-(3-(4-(1-methyl-1H-pyrazol-4-yl)phenyl)imidazo[1,2-a]pyridin-5-yl)piperidine-4-carbonitrile] showed an IC50 of 0.1 to 100 nM. Turning to `Cn1ncc2cc(-c3cnn4cccc(N5CCC(C)(C#N)CC5)c34)ccc21` [Compound P-0403, 4-methyl-1-(3-(1-methyl-1H-indazol-5-yl)pyrazolo[1,5-a]pyridin-4-yl)piperidine-4-carbonitrile], the IC50 was 0.1 to 100 nM.

Compound `CC1(C#N)CCN(c2cccn3ncc(-c4ccc(-c5cnn(C(F)F)c5)cc4)c23)CC1` [Compound P-0404, 1-[3-[4-[1-(difluoromethyl)pyrazol-4-yl]phenyl]pyrazolo[1,5-a]pyridin-4-yl]-4-methyl-piperidine-4-carbonitrile] returned an IC50 of 0.1 to 100 nM. Next, `Cn1ncc2cc(-c3cnn4cccc(N5CCC(C#N)CC5)c34)ccc21` [Compound P-0405, 1-(3-(1-methyl-1H-indazol-5-yl)pyrazolo[1,5-a]pyridin-4-yl)piperidine-4-carbonitrile]: 0.1 to 100 nM; `CC(C)(O)C#Cc1cccn2ncc(-c3ccc(OCCN4CCCCC4)cc3)c12` [Compound P-0406, 2-methyl-4-(3-(4-(2-(piperidin-1-yl)ethoxy)phenyl)pyrazolo[1,5-a]pyridin-4-yl)but-3-yn-2-ol]: 100 to 1000 nM; `Cn1cc(C#Cc2cnc3cccc(N4CCC(C#N)CC4)n23)cn1` [Compound P-0409, 1-(3-((1-methyl-1H-pyrazol-4-yl)ethynyl)imidazo[1,2-a]pyridin-5-yl)piperidine-4-carbonitrile]: 100 to 1000 nM. Compound `CC(C)(O)C#Cc1cccn2ncc(-c3ccc(Oc4ccccc4)cc3)c12` [Compound P-0410, 2-methyl-4-(3-(4-phenoxyphenyl)pyrazolo[1,5-a]pyridin-4-yl)but-3-yn-2-ol] yielded an IC50 of 1000 to 10000 nM. In the case of `CC(C)(O)C#Cc1cccn2ncc(-c3ccc(NS(=O)(=O)C4CC4)cc3)c12` [Compound P-0412, N-(4-(4-(3-hydroxy-3-methylbut-1-yn-1-yl)pyrazolo[1,5-a]pyridin-3-yl)phenyl)cyclopropane-sulfonamide] it was 100 to 1000 nM. `CC(C)(O)C#Cc1cccn2ncc(-c3ccc(S(=O)(=O)N4CCCCC4)cc3)c12` [Compound P-0413, 2-methyl-4-(3-(4-(piperidin-1-ylsulfonyl)phenyl)pyrazolo[1,5-a]pyridin-4-yl)but-3-yn-2-ol] showed an IC50 of 1000 to 10000 nM. `Cn1ncc2cc(-c3cnn4cccc(C#CC(C)(C)O)c34)ccc21` [Compound P-0414, 2-methyl-4-(3-(1-methyl-1H-indazol-5-yl)pyrazolo(1,5-a]pyridin-4-yl)but-3-yn-2-ol] had an IC50 of 0.1 to 100 nM. Next, `CNC(=O)C1CC=C(c2cccc3ncc(-c4ccc(-c5cnn(C)c5)cc4)n23)CC1` (stereo not drawn) [Compound P-0417, N-methyl-4-(3-(4-(1-methyl-1H-pyrazol-4-yl)phenyl)imidazo[1,2-a]pyridin-5-yl)cyclohex-3-ene-1-carboxamide]: 100 to 1000 nM. In the case of `Cn1cc(-c2ccc(-c3cnc4cccc(C5=CCN(S(C)(=O)=O)CC5)n34)cc2)cn1` [Compound P-0419, 3-(4-(1-methyl-1H-pyrazol-4-yl)phenyl)-5-(1-(methylsulfonyl)-1,2,3,6-tetrahydropyridin-4-yl)imidazo[1,2-a]pyridine] it was 100 to 1000 nM; in that of `CCOC(=O)C1CC=C(c2cccc3ncc(-c4ccc(-c5cnn(C)c5)cc4)n23)CC1` (stereo not drawn) [Compound P-0420, ethyl 4-(3-(4-(1-methyl-1H-pyrazol-4-yl)phenyl)imidazo[1,2-a]pyridin-5-yl)cyclohex-3-ene-1-carboxylate], 1000 to 10000 nM. Next, `Cn1cc(-c2ccc(-c3cnn4cccc(N5CCC(C#N)CC5)c34)cc2)cn1` [Compound P-0422, 1-(3-(4-(1-methyl-1H-pyrazol-4-yl)phenyl)pyrazolo[1,5-a]pyridin-4-yl)piperidine-4-carbonitrile]: 0.1 to 100 nM; `N#CC1CCN(c2cccn3ncc(-c4ccc(-c5nc(C6CC6)no5)cc4)c23)CC1` [Compound P-0423, 1-(3-(4-(3-cyclopropyl-1,2,4-oxadiazol-5-yl)phenyl)pyrazolo[1,5-a]pyridin-4-yl)piperidine-4-carbonitrile]: 0.1 to 100 nM; `N#CC1CCN(c2cccn3ncc(-c4ccc(-c5nc(C(F)(F)F)no5)cc4)c23)CC1` [Compound P-0424, 1-(3-(4-(3-(trifluoromethyl)-1,2,4-oxadiazol-5-yl)phenyl)pyrazolo[1,5-a]pyridin-4-yl)piperidine-4-carbonitrile]: 1000 to 10000 nM. In turn, `Cn1cc(-c2ccc(-c3cnn4cccc(-c5ccnc(C#N)c5)c34)cc2)cn1` [Compound P-0425, 4-[3-[4-(1-methylpyrazol-4-yl)phenyl]pyrazolo[1,5-a]pyridin-4-yl]pyridine-2-carbonitrile] came in with an IC50 of 1000 to 10000 nM. Next, `Cn1cc(-c2ccc(-c3cnn4cccc(C#CC(O)c5ccccc5)c34)cc2)cn1` (stereo not drawn) [Compound P-0426, 3-[3-[4-(1-methylpyrazol-4-yl)phenyl]pyrazolo[1,5-a]pyridin-4-yl]-1-phenyl-prop-2-yn-1-ol]: 0.1 to 100 nM. Next, `Cn1cc(-c2ccc(-c3cnc4cccc(OC5CCOCC5)n34)cc2)cn1` [Compound P-0427, 3-(4-(1-methyl-1H-pyrazol-4-yl)phenyl)-5-((tetrahydro-2H-pyran-4-yl)oxy)imidazo[1,2-a]pyridine]: 100 to 1000 nM.
